The record followed here is BindingDB's records for doi:10.1016/j.bmcl.2017.04.089 (Mcdaniel College, 2017).

For this assay, the target named is Protein mono-ADP-ribosyltransferase PARP14 (Homo sapiens, UniProt Q460N5). Nature of the assay: Inhibition of recombinant human His6-tagged PARP14 catalytic/WWE domain (1459 to 1801 residues) expressed in Escherichia coli BL21(DE3) preincubated for 15 mins followed by biotinylated NAD+ addition by chemiluminescence assay.
Chain of Protein mono-ADP-ribosyltransferase PARP14 (Q460N5 whole entry, the tested form may be a part): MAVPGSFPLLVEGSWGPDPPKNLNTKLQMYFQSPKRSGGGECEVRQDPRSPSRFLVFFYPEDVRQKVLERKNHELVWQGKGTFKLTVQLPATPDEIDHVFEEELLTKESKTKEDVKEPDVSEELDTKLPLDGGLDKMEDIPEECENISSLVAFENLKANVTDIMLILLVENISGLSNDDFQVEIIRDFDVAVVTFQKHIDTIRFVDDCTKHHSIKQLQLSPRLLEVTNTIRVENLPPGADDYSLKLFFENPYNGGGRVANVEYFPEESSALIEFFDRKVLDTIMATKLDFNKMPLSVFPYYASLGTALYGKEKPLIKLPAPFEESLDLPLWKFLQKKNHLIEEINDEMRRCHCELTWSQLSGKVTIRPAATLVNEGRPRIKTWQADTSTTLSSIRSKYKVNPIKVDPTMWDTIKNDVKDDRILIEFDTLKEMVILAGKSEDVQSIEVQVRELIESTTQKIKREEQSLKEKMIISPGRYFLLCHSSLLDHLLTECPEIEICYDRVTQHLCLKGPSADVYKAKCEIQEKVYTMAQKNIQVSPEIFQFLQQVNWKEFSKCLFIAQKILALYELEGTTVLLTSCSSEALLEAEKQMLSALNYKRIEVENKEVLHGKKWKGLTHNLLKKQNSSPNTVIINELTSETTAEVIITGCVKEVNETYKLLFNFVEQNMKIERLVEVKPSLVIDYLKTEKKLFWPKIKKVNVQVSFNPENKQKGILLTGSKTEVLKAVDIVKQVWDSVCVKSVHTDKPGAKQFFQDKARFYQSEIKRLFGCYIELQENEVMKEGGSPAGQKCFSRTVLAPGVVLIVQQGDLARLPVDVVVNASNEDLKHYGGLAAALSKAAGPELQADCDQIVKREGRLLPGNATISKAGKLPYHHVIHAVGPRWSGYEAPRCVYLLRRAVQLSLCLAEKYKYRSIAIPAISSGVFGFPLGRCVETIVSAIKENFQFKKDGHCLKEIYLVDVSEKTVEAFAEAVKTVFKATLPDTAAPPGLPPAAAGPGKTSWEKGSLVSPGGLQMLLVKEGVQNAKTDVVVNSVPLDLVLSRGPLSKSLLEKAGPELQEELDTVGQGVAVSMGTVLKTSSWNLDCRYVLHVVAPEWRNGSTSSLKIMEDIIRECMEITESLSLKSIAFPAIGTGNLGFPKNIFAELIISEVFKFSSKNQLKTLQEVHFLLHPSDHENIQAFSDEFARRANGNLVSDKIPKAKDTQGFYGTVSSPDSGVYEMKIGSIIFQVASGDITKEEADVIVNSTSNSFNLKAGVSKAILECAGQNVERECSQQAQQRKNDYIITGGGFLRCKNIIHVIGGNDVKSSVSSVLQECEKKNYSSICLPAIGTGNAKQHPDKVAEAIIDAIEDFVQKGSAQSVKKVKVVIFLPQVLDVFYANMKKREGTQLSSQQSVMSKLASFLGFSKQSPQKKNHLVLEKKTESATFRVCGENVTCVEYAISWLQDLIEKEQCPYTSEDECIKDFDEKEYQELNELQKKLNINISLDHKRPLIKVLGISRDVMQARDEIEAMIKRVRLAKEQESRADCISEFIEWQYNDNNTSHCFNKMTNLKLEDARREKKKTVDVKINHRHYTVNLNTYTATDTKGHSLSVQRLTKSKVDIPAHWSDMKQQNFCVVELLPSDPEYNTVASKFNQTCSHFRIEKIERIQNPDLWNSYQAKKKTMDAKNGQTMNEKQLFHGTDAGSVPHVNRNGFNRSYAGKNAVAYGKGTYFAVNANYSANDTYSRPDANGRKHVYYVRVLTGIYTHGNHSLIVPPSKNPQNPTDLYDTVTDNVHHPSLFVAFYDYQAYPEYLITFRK

As to `NC(=O)c1cccc(NC(=O)/C=C\C(=O)N2CCCC(Oc3ccccc3)C2)c1` (stereo unspecified), the IC50 (commonly the midpoint of a concentration-inhibition curve) is 1020 nM.
